Assay results as given in patent US20070093520A1, “Method of treatment of diarrhea-predominant irritable bowel syndrome in a subject” (priority 2005, published 2007).

Test system: diarrhea-predominant IBS subjects
Test: 3008 Study: 12-lead ECG abnormalities
Assay type: in vivo, human
Conditions: 3007 Study
Method: Resting 12-lead ECGs were performed at Day 1 (Visit 5 of the core protocol), Months 1, 6, and 12 (end of study or early termination visit). A centralized ECG service was used to evaluate all ECG tracings to supply consistent standardized ECG interpretation.
For by-visit assessments, visit windows were assigned to the post-Baseline assessments as follows (vital signs, laboratory tests, and ECGs):
All analyses and summaries for ECG assessments were based on the evaluation performed in the central ECG laboratory.
Summary statistics are presented for PR, QRS, QT, and QTc intervals (Bazett and Fridericia formulas) and heart rate at each visit and at Endpoint, as well as for change from Baseline results at each post-Baseline visit and at Endpoint. Bazett's and Fridericia's QTc intervals were calculated based on the following formulas: Bazett: QTc intervals=QT/√RR Fridericia: QTc intervals=QT/^3√RR
Markedly abnormal ECG parameter values collected after the first dose of study medication and within 30 days of the last dose of study medication were summarized overall. The following criteria were applied to identify markedly abnormal parameter values: • PR ≧0.210 sec; • QRS ≧0.120 sec; • QTc >0.440 sec;
The incidence of treatment-emergent ECG abnormalities is presented overall and by type of abnormality. A treatment-emergent ECG abnormality was an abnormality identified by the ECG core laboratory that was not present at baseline (e.g., prior to the entry into core Study 3006), and was observed on or after initiation of study medication and up to 30 days after discontinuation of study medication. The incidence of treatment-emergent ECG abnormalities is presented by time interval, as well as overall for the entire treatment period. The incidence of treatment-emergent abnormalities is also presented in more general categories (e.g., presenting incidence of treatment-emergent myocardial infarction overall as well as by location), depending on whether it mitigates the interpretation.

Cc1nccn1C[C@H]1CCc2c(c3cccc4c3n2CCC4)C1=O [cilansetron, (R)-(−)-4,5,6,8,9,10-hexahydro-10-[(2-methyl-1H-imidazol-1-yl)methyl]-11H-pyrido-[3,2,1-jk]-carbazol-11-one]
ECG abnormality: early-repolarization-normal variant: > 10% | ECG abnormality: sinus arrhythmia: > 10% | ECG abnormality: sinus bradycardia: > 10% | incidence of treatment-emergent markedly abnormal QTc(F) (30 subjects): 2% | incidence of treatment-emergent markedly abnormal QTc(B) (105 subjects): 8%
